Patent US10653657B2, “Method for treating hemolytic uremic syndrome” (ENZYCHEM LIFESCIENCES CORPORATION, priority 2015, dated 2020)

How the values were obtained:
[1] = tested on: C3; test: C3 expression in HMC-1 cells induced with IL-4 and TNF-α (RT-PCR / blots); type: cell-based, human
Description: A blood cell line, HMC-1 (human mast cell, American Type Culture Collection, ATCC, Rockville, Md.) is incubated and maintained at 37° C. under 5% CO2 humid conditions. The medium is IMDM (Life Technologies, Karlsruhe, Germany) containing 10% Fetal Calf Serum (FCS, HyClone, Logan, Utah), 2 mM […], 100 μg/ml penicillin, 100 μg/ml streptomycin (Life Technologies). The cultured HMC-1 cells (1×10^6 cells/ml) are pre-treated with 0.1 and 1 μg/mL concentrations of PLAG, followed by treatment with IL-4 (5 ng) and/or TNF-α (10 ng) to induce cellular activities.
The expressed C3 and its mRNA level change are observed by using RT-PCR (Reverse Transcriptase Polymerase Chain Reaction). The RT-PCR is carried out as follows: the total RNA is separated by the standard protocol and cDNA is synthesized using AccuScript High Fidelity 1st Strand cDNA Synthesis Kit (Stratagene). Two-step RT-PCR reaction is conducted using Oligo-dT primer and reverse transcriptase, a pair of primers and Taq polymerase (Takara, Shiga, Japan). […] The product of PCR is separated using 1.5% agarose gel, dyed with ethidium bromide (EtBr), and visualized with Gel Doc 2000 UV trans-illuminator (Bio-Rad Laboratories, Hercules, Calif., USA), and the experimental data is analyzed using Quantity One software (Bio-Rad Laboratories).

[2] = tested on: C3; test: C3 mRNA expression in HepG2 cells by RT-PCR; type: cell-based, human
Description: A liver cell line, HepG2 (American Type Culture Collection, ATCC, Rockville, Md.), is incubated and maintained at 37° C., 5% CO2 humid atmosphere in DMEM medium. When HepG2 cells, which are known to produce complement in culture, are treated with PLAG, the activity of complement is reduced effectively, as confirmed by RT-PCR of mRNA. In the RT-PCR, 5×10^5 HepG2 cells/ml are distributed into 12 well plates and induced C3 for 12 hours with 10% FCS. Then PLAG is added and further cultured for 2 hours. Cells are harvested and mRNA is isolated and RT-PCR is carried out with specific primers for C3; GAPDH is used as an internal control.

[3] = tested on: C3; test: C3 inhibition in HMC-1 cells, ELISA of expressed protein; type: cell-based, human; settings: PLAG 1, 10 and 100 μg/mL for 2 hours; activated 72 hours with 10% FBS
Description: In a separate experiment, human mast cells (HMC-1, 1×10^5 cells/ml) are treated with PLAG at various concentrations (1, 10 and 100 μg/mL) for 2 hours. The cells are activated for 72 hours with 10% FBS (Fetal bovine serum)-containing IMDM. The decrease of C3 is confirmed by ELISA analysis of the expressed protein.

[4] = tested on: STAT1; test: STAT1 transcriptional activity (luciferase) in gene transfected HepG2 cells; type: cell-based, human; settings: 10 ng IFN-γ, PLAG 0.01-10 μg/ml, 12 hour incubation
Description: (§1) By using STAT6 inhibitor (S6I), it is confirmed that the reduction of complement 3 in HepG2 cells (human hepatocyte cell line) is regulated by STAT6. […] It is also confirmed that PLAG has selective efficacy on STAT6 over STAT1. FIG. 1 presents graphs showing STAT1 and STAT6 transcriptional activity in the PLAG treated HepG2 cells. NC refers to the unstimulated control cell. For the STAT1 assay, gene transfected HepG2 (human hepatocyte cell line) is treated with 10 ng of IFN-γ and serially diluted PLAG is added (0.01 μg/ml, 0.1 μg/ml, 1 μg/ml, and 10 μg/ml as shown) to see its effect on gene expression in the stimulated cell. For the STAT6 assay, gene transfected HepG2 cells are treated with 10 ng of IL-4 and again serially diluted PLAG is added (0.01 μg/ml, 0.1 μg/ml, 1 μg/ml, and 10 μg/ml as shown) to see its effect on gene expression in the stimulated cell. The assay is carried out following a 12 hour incubation of treated cells.

[5] = tested on: complement 3; test: Complement 3 activation by chemotherapeutic agents in mouse model; type: in vivo; settings: mice; PLAG 50 mg/kg daily 3 weeks with Gemcitabine, Cyclosphosphamide or Tamoxifen
Description: The effect of PLAG for treatment of chemotherapy-induced thrombocytopenia (CIT) is evaluated in an animal model. Anti-cancer agents (Gemcitabine 50 mg/kg, Cyclosphosphamide 100 mg/kg, or Tamoxifen 50 mg/kg) are dosed daily for 3 weeks; PLAG is also administered at a dose of 50 mg/kg daily for 3 weeks.
It is believed that the neutropenia and thrombocytopenia of these agents and other chemotherapeutic agents may be due at least in part to a specific complement-mediated toxicity. This is seen in FIG. 5.

[6] = tested on: HepG2 cells; test: WST-1 cell viability assay in HepG2 cells; type: cell-based; settings: PLAG 1 to 100 μg/ml
Description: (§2) The incubated HepG2 cell lines are treated with PLAG (1˜100 μg/ml), followed by IL-4 and TNF-α, reacted for 1 hour, incubated for 18 hours at 37° C. and the supernatant is isolated. Quantitation of the amount of C3 in the cellular culture medium (supernatant) from HepG2 cells is performed by ELISA using a commercially available monoclonal antibody (mAb, R&D Systems) and the manufacture's protocol; the results are presented in FIGS. 3A-3C. C3 is expressed spontaneously under in vitro culture conditions using 10% FCS added to HepG2 cells incubated for 12 hr. The cells are treated with different doses of PLAG from 1 to 100 μg/ml (FIG. 3A, FIG. 3B) or 10 and 100 μg/ml of S6I (FIG. 3C), reacted with IL-4 and TNF-α for 1 hr and then incubated for 18 hr at 37° C. Cellular viability is confirmed using the WST-1 assay (FIG. 3A).

[7] = tested on: hematopoietic stem cells and megakaryocytes; settings: reported in WO 99/26640; cited from earlier work
[8] = molecular target: T1, STAT6 (Homo sapiens, UniProt P42226); test: Dephosphorylation of STAT6 (Western blot, anti-phosphorylated STAT6) in IL-4 stimulated cells; type: cell-based; settings: U937, Jurkat and A549 cells; PLAG 0.01 to 10 μg/ml; 10 ng/ml IL-4; 15 min after stimulation
T1 construct: endogenous in cells; host or cells: U937, A549, Jurkat
T1 sequence (P42226 1-847): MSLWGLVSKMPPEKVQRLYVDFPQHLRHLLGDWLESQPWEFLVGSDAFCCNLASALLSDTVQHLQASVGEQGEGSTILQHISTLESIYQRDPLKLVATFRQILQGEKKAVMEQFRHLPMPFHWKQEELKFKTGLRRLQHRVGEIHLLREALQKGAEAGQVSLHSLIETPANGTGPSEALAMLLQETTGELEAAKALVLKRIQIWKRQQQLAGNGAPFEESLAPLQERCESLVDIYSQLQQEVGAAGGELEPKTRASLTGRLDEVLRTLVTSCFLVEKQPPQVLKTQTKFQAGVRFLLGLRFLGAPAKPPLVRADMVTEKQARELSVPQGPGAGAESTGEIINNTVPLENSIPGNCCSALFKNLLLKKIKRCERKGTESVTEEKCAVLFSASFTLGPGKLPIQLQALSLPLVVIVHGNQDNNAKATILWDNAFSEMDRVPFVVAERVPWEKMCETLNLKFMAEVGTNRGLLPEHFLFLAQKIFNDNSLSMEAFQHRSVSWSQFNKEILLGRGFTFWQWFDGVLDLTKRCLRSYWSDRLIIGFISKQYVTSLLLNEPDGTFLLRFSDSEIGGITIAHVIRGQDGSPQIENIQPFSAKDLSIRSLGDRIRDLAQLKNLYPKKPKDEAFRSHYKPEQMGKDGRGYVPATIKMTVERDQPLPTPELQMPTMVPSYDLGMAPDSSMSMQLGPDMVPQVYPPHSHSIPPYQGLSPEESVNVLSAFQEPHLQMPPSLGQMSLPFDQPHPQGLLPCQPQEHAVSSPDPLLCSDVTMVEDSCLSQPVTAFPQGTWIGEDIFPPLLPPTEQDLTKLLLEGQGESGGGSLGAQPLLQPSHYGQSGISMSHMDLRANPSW
Description: Dephosphorylation of STAT6 is examined using anti-phosphorylated STAT6 in U937, A549, and Jurkat cell lysates treated with PLAG at a concentration of from 0.01 to 10 μg/ml. Phosphorylation of STAT6 is induced by treatment with 10 ng/ml of IL-4. Dephosphorylation of STAT1 is examined in the U937 cell lysate treated with PLAG (0.01 to 10 μg/ml). Phosphorylation of STAT1 is induced by 10 ng of IFN-γ treatment. Dephosphorylation of STAT1 and STAT6 is examined at 15 min after stimulation with IFN-γ and IL-4 respectively, in the PLAG pretreated cells. […] The transcriptional activity of STAT6 is decreased by the dephosphorylation of STAT6. […] No effect of PLAG on STAT1 phosphorylation is observed.

[9] = tested on: C3; test: C3 in culture supernatant of HepG2 cells by ELISA; type: cell-based, human; settings: PLAG 1 to 100 μg/ml; IL-4 and TNF-α 1 hr, then 18 hr at 37° C.
Description: as §2

[10] = tested on: STAT6; test: STAT6 transcriptional activity (luciferase) in gene transfected HepG2 cells; type: cell-based, human; settings: 10 ng IL-4, PLAG 0.01-10 μg/ml, 12 hour incubation
Description: as §1

[11] = Colony forming units (CFUs) in spleen assay in heavily irradiated mice; type: in vivo; settings: PLAG 50 mg/kg/d i.p. or p.o.
Description: Colony Forming Units (CFUs) in Spleen Assay in Vivo: In order to determine the in vivo effect of PLAG on the recovery of hematopoiesis, a CFUs assay is performed in heavily irradiated mice.

Compound | Expression of C3 in HMC-1 cells ([1]; IL-4 and TNF-α followed by S6I) | Inhibition of C3 expression (RT-PCR) in HepG2 ([2]; S6I 10 and 100 μg/ml, compared with PLAG 1 and 10 μg/ml) | Decrease of C3 (ELISA) in HMC-1 cells [3] | STAT1 expression (transcriptional activity, luciferase) [4] | Complement 3 activation caused by chemotherapeutic agents [5] | Cellular propagation and death (WST-1 viability) [6] | Growth-stimulating activities of hematopoietic stem cells and megakaryocytes [7] | IL-4 treatment induced STAT6 phosphorylation [8] | Expression of C3 in HMC-1 cells ([1]; pre-treated with 0.1 and 1 μg/mL PLAG, then IL-4 (5 ng) and TNF-α (10 ng)) | Inhibition of C3 expression (RT-PCR) in HepG2 ([2]; PLAG 1 μg/ml, 2 hours, C3 induced 12 hours with 10% FCS) | Inhibition of C3 expression (RT-PCR) in HepG2 ([2]; PLAG 10 μg/ml, 2 hours, C3 induced 12 hours with 10% FCS) | Expression of C3 (ELISA, HepG2 supernatant) [9] | STAT6 expression (transcriptional activity, luciferase) [10] | Number of splenic nodules, primitive progenitor cells and megakaryocytes [11]
NC(=O)c1cnc(NCCc2ccc(O)c(Cl)c2)nc1NCc1ccccc1 [S6I, reference compound] | comparable | comparable | – | – | – | – | – | – | – | – | – | – | – | –
CCCCC/C=C\C/C=C\CCCCCCCC(=O)OC(COC(C)=O)COC(=O)CCCCCCCCCCCCCCC (racemic) [PLAG, 1-palmitoyl-2-linoleoyl-3-acetylglycerol] | – | – | proportional to the concentration of PLAG | no effect | largely blocked | does not affect | have growth-stimulating activities | inhibited with increasing PLAG concentrations | suppressed by PLAG on a concentration dependent basis | somewhat | entirely | decreased dose-dependently | significant, dose-dependent effect | marked increase
